Assays:
[1] = test system: salivary alpha-amylase; assay: Salivary alpha-amylase before vs after timed ten minute mathematical/word stress test, fragrance inhaled; format: in vivo, human; settings: for Percent change in salivary alpha-amylase: solvent only control 66.8%; for Salivary Amylase Data (change before vs after stress test): Table 6, about 10-15 panelists, DPG control +60.7%
Method: Fourteen female panelists age 30-45 participated in this study. Stress was induced using a timed ten minute mathematical/word test in a small group competition setting. Fragrance was introduced at intervals during the stress test. Saliva was collected before (Pre) and immediately after (Post) the stress test. Saliva samples were assayed for salivary alpha-amylase using a commercially available kinetic reaction assay kit and for salivary cortisol using a highly sensitive enzyme immunoassay kit (Salimetrics®, State College, Pa.). […]
(§1) Saliva was collected before (Pre) and immediately after (Post) the stress test. Saliva samples were assayed for salivary alpha-amylase using a commercially available kinetic reaction assay kit and for salivary cortisol using a highly sensitive enzyme immunoassay kit (Salimetrics®, State College, Pa.).

[2] = test system: salivary cortisol; assay: Salivary cortisol before vs after timed ten minute mathematical/word stress test, fragrance inhaled; format: in vivo, human; settings: for Cortisol Data (change before vs after stress test): Table 6, about 10-15 panelists, DPG control −10.9%
From the text: Salivary cortisol is widely used as a biomarker for stress. The purpose of this study was to investigate the influence of individual fragrance compounds, particularly musk compounds, on a subject's cortisol levels before and after exposure to a stressor. The subject sniffed each musk compound, then was exposed to a stressor. The goal was to identify one or more specific musk compounds which caused the least amount of change in cortisol levels or decreased a subject's cortisol levels compared to before administration, thereby reducing or inhibiting a response to stress stimuli. […]
Stress was induced in a number of panelists (about 10-15) for each tested compound using a timed ten minute mathematical/word test in a small group competition setting. The test compound was introduced at intervals during the stress test.
Saliva was collected before and immediately after the stress test. Saliva samples were assayed for salivary cortisol levels and salivary alpha-amylase activity using a commercially available kinetic reaction assay kit (Salimetrics®, State College, Pa.). […]
as §1

[3] = Chassis-air partition coefficient of accord components; format: physicochemical; settings: BC-162 shampoo chassis
From the text: The chassis-air partition coefficient can be measured for materials in various chassis.
Ki,chassis-air is the chassis-air partition coefficient for component i in the fragrance formula
Ci, chassis is the concentration of component i in the product formula chassis in molarity, M
Ci, air is the concentration of component i in the headspace air in equilibrium with the formula chassis in molarity, M
For the “Example Accord” in the BC-162 shampoo chassis components, the log chassis-air partition coefficients are as listed in Table 11.

[4] = as above; format: physicochemical
[5] = test system: brain waves; assay: Contingent Negative Variant (CNV) analysis of brain waves recorded by EEG; format: in vivo, human; settings: Example 9; Musk T 10% by weight in DPG
Method: Contingent Negative Variant (CNV) analysis was conducted on brain waves recorded from subjects using EEG (electroencephalography) in the presence of the musk fragrance compound. CNV analysis is summarized in Okazaki et al., Proceedings of the 13th International Congress of Flavours, Fragrances and Essential Oils, 15-19 Oct. 1995.

[6] = Table 4, macrocyclic musks, 12-14 female panelists age 30-45, before vs immediately after stress test
[7] = Table 5, non-macrocyclic musks, methods as Example 6

Row | logK, BC162 (log chassis-air partition coefficient) [3] | logK, APDO Soft Solid (log chassis-air partition coefficient) [4] | Compound | Percent change in salivary alpha-amylase [1, 6] | Salivary Amylase Data (change before vs after stress test) [1] | Cortisol Data (change before vs after stress test) [2] | also measured
1 | – | – | O=C1CCCC=CCCCCCCCCCC1 [Ambretone ®, 5-Cyclohexadecen-1-one] | 36.9% | – | – | –
2 | – | – | O=C1CCCCC=CCCCCCCCCCO1 [Ambrettolide, 17-oxacycloheptadec-6-en-1-one] | 13.1% | +13.16% | −11.25% | –
3 | – | – | CC(=O)OC(C)C1CCCC(C)(C)C1 (stereo not shown) [Rosamusk, 1-(3,3-dimethylcyclohexyl)ethyl acetate] | – | −15.2% | +6.68% | Pre vs. Post salivary alpha-amylase level, decrease in response to stress test ([1]; Example 10, FIG. 7, Rosamusk 10% by weight in DPG, DPG alone increased 33%): 15%; Pre vs. Post salivary cortisol level, increase in response to stress test ([2]; Example 10, FIG. 8, Rosamusk 10% by weight in DPG, DPG alone 25%): 7%
4 | – | – | CC(=O)c1cc2c(cc1C)C(C)(C)C(C)C2(C)C (stereo not shown) [Phantolide, 1-(1,1,2,3,3,6-hexamethyl-2H-inden-5-yl)ethanone] | – | −19.2% | −12.3% | –
5 | – | – | CC1=CCC(C/C=C(\C)CO)C1(C)C (stereo not shown) [Hindinol, (E)-2-methyl-4-(2,2,3-trimethyl-1-cyclopent-3-enyl)but-2-en-1-ol] | – | +82.3% | −25.0% | Percent change in salivary alpha-amylase [1, 7]: 82.3%
6 | 7.809 | 6.135 | CC(=O)CCc1ccc(O)cc1 [PARA HYDROXY PHENYL BUTANONE] | – | – | – | –
7 | 6.345 | 7.306 | O=C1CCCCCCCCCCCC(=O)OCCO1 [Musk T ®, ethylene brassylate] | 47.1% | – | – | Pre vs. Post salivary alpha-amylase level, increase in response to stress test ([1]; Example 8, FIG. 3, Musk T 2.5% by weight in fragrance (floral fragrance/Musk T 75/25 admixture, 10% in DPG), DPG alone 120%): 38%; Pre vs. Post salivary alpha-amylase level, increase in response to stress test ([1]; Example 9, FIG. 5, Musk T 10% by weight in DPG, DPG alone 161%): 47%; Pre vs. Post salivary cortisol level, decrease in response to stress test ([2]; Example 8, FIG. 4, Musk T 2.5% by weight in fragrance (floral fragrance/Musk T 75/25 admixture, 10% in DPG), DPG alone increased 24%): 8%; Pre vs. Post salivary cortisol level, increase in response to stress test ([2]; Example 9, FIG. 6, Musk T 10% by weight in DPG, DPG alone 41%): 10%; increase in the level of relaxation, CNV analysis of brain waves [5]: 32.5%
8 | 5.356 | 6.729 | O=C1CCCCCCCCCCCCCCO1 [EXALTOLIDE, 16-oxacyclohexadecan-1-one] | – | – | – | –
9 | 5.505 | 6.693 | O=C1CCCCCCCCC/C=C/CCCO1 [Habanolide, (12E)-1-oxacyclohexadec-12-en-2-one] | 4.7% | +4.67% | −20.6% | –
10 | – | – | CC1CCCCCCCCCCCCC(=O)C1 [L-Muscone] | – | +14.5% | +25.6% | –
11 | – | – | CC(=O)C(C)CC[C@H]1CCC(C)C1(C)C (stereo partly drawn) [3-methyl-5-((1R)-2,2,3-trimethylcyclopentyl)pentan-2-one] | – | −6.1% | −16.5% | –
12 | 5.780 | 6.970 | O=C1CCCCCCCCCOCCCCCO1 [MUSK RI, 11-Oxahexadecan-16-olide] | – | – | – | –
13 | – | – | CCOC(=O)[C@@H]1[C@@H](C)CCCC1(C)C [ethyl (1R,6S)-2,2,6-trimethylcyclohexane-1-carboxylate] | – | – | – | Percent change in salivary alpha-amylase [1, 7]: 70.7%
